Data on 16 compounds can be found in ChEMBL document CHEMBL1139756, “Synthesis and structure-activity relationship of novel indene N-oxide derivatives as potent peroxisome proliferator activated receptor gamma (PPARgamma) agonists” (Bioorg Med Chem Lett, 2007).

In this test the target is T1, Peroxisome proliferator-activated receptor gamma (Homo sapiens, UniProt P37231).
T1 sequence (P37231 whole entry): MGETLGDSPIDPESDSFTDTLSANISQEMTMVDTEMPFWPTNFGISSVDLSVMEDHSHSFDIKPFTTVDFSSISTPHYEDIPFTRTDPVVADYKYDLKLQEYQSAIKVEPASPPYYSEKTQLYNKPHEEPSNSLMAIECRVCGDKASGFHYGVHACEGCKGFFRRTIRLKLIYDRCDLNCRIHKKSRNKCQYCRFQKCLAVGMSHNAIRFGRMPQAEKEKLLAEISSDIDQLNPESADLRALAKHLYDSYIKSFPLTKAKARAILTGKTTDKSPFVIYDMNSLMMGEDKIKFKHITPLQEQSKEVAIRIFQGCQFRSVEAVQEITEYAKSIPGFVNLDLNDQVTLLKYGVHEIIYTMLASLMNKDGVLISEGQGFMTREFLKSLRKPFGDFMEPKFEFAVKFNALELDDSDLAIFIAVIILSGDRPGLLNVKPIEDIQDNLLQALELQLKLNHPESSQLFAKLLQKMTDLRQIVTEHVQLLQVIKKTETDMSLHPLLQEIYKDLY
Description: Agonist activity at human PPARgamma expressed in NIH3T3 cells by GAL4 transactivation assay
In general, EC50 refers to the midpoint of the concentration-response curve. Higher therefore signals lower potency in that assay. For the compound `CCOC(=O)C1=C(c2ncc[nH]2)c2ccc(OCCCc3ccccc3)cc2/C1=[N+](/C)[O-]`, the EC50 was above 1000 nM.
With `CCOC(=O)C1=C(c2ccc(C)cc2)c2ccc(OCCCc3ccccc3)cc2/C1=[N+](/C)[O-]`, the EC50 is 660 nM.
`CCOC(=O)C1=C(c2ccccc2)c2ccc(OC)cc2/C1=[N+](\[O-])Cc1ccccc1` returned an EC50 above 10000 nM.
For `CCOC(=O)C1=C(c2cccc(C)c2)c2ccc(OCCCc3ccccc3)cc2/C1=[N+](/C)[O-]` the value was 300 nM.
Next, `CCOC(=O)C1=C(c2ccccc2)c2ccc(OCCC34CC5CC(CC(C5)C3)C4)cc2/C1=[N+](/C)[O-]`: 840 nM; `CCOC(=O)C1=C(c2ccc(Cl)cc2)c2ccc(OCCCc3ccccc3)cc2/C1=[N+](/C)[O-]`: 70 nM; `CCOC(=O)C1=C(CC)c2ccc(OCCCc3ccccc3)cc2/C1=[N+](/C)[O-]`: 80 nM.
Next, `C/[N+]([O-])=C1\C=C(c2ccccc2)c2ccc(OCCN3CCOCC3)cc21`: 150 nM; `COC(=O)C1=C(c2ccccc2)c2ccc(OCCN3CCOCC3)cc2/C1=[N+](/C)[O-]`: 140 nM.
In the case of `CCOC(=O)C1=C(c2ccccc2)c2ccc(OC)cc2/C1=N\O`, the EC50 is above 10000 nM.
Take `CCOC(=O)C1=C(c2ccccc2)c2ccc(OC)cc2/C1=[N+](\[O-])CC`: the EC50 is above 10000 nM.
The compound `C/[N+]([O-])=C1\C(C(=O)NC2CC2)=C(c2ccccc2)c2ccc(OCCN3CCOCC3)cc21` gave an EC50 of 20 nM. This lies in the double-digit nanomolar range.
For `CCOC(=O)C1=C(c2ccsc2)c2ccc(OCCCc3ccccc3)cc2/C1=[N+](/C)[O-]` the value was 190 nM; for `CCOC(=O)C1=C(c2ccccc2)c2ccc(OC)cc2/C1=N\OC`, 1500 nM; for `CCOC(=O)C1=C(c2ccc3c(c2)OCO3)c2ccc(OCCCc3ccccc3)cc2/C1=[N+](/C)[O-]`, 250 nM.
For `CCOC(=O)C1=C(c2ccccc2)c2ccc(OCc3ccccn3)cc2/C1=[N+](/C)[O-]` the value was 90 nM.
